Entries after “also recorded” stand apart in the source; their conditions may differ.
Legend:
[1] = test system: primary T cells transfected with CDA-BFP mRNA; experiment: Viability by flow cytometry of primary T cells transfected with CDA-BFP mRNA, in presence of prodrug; format: cell-based, human; details: increasing concentration (0 to 10 mM) for 48H; FIG. 1
Text: FIG. 1: Analysis by FACS for BFP expression in T cells render hypersensitive to the prodrugs 5fdC and 5HmdC after CDA expression. mRNA encoding a chimeric construction consisting of CDA fused to a BFP reporter. A) Viability rate expressed in percentage: comparison between mock (T cells not transfected by the CDA expression plasmid)—represented in the graph by unfilled bar- and transfected T cells by the CDA expression plasmid—represented in the graph by filled bar-, when all cells are submitted to an increasing dose of the 5fdC prodrug (from 0 to 10 mM); B) The same than for A) excepted that the cells are submitted to an increasing dose of the 5HmdC prodrug (from 0 to 10 mM). […]
To test the ability of CDA expression to endow primary T cell with hypersensitivity to hypomethylated agents 5hmdC and 5FdC, primary T cells were transfected with 40 μg of mRNA encoding a chimeric construction consisting of CDA fused to a BFP reported via a 2A self-cleaving peptide (SEQ ID NO. 9). One day post transfection, cells were recovered and analyzed by flow cytometry for BFP expression.
Transfected cells were incubated in the presence of increasing concentration of 5hmdC or 5FdC for 48H. At the end of incubation, cell viability was determined by flow cytometry. […]

[2] = test system: dCK KO T cells expressing CDA-BFP; experiment: Viability by flow cytometry of dCK KO T cells transfected with CDA-BFP mRNA, in presence of prodrug; format: cell-based, human; details: increasing concentration (0 to 10 mM) for 48H; FIG. 2
Experimental: FIG. 2: Analysis by FACS for BFP expression in T cells render hypersensitive to the prodrugs 5fdC and 5HmdC by combining CDA expression and inactivation of dCK gene by KO. mRNA encoding a chimeric construction consisting of CDA fused to a BFP reporter, and a KO inactivation of dCK is made by using TALE-nuclease as explained later. […]
To further investigate the ability of T cells to be sensitive to 5fdC, IC50 for this prodrug was determined on dCK KO and WT T cells. […] At the end of 5fdC incubation, viability of T cells was determined by FACS analysis.
FIG. 2 presents the results to show whether primary T cells having undergone dCK KO can still endow resistance to purine nucleotide analogues as well as with hypersensitivity toward 5hmDC and SFDC. One day post transfection, dCK KO T cells were recovered and analyzed by flow cytometry for BFP expression. […] As described earlier, transfected cells were incubated in the presence of increasing concentration of 5hmdC or 5FdC for 48H and at the end of incubation, cell viability was determined by flow cytometry.

For `Nc1nc(=O)n([C@H]2C[C@H](O)[C@@H](CO)O2)cc1C=O` [5FdC, 5-formyl-2′-deoxycytidine], the “sensitivity (cell viability) of CDA-transfected T cells with respect to wild type cells” value [1] was “increase of sensitivity” and the “prodrug hypersensitivity (cell viability) of dCK KO T cells transfected with CDA-BFP” value [2] was “increase of specific prodrug hypersensitivity; also recorded: hypersensitive”.
`Nc1nc(=O)n([C@H]2C[C@H](O)[C@@H](CO)O2)cc1CO` [5hmdC, 5-hydroxymethyl-2′-deoxycytidine] was tested, and the “sensitivity (cell viability) of CDA-transfected T cells with respect to wild type cells” value [1] was “increase of sensitivity” and the “prodrug hypersensitivity (cell viability) of dCK KO T cells transfected with CDA-BFP” value [2] was “increase of specific prodrug hypersensitivity; also recorded: hypersensitive”.
